Results on 20 compounds are retold here after patent US12384808B2, “Modulators of TNF-α activity” (Forward Therapeutics, Inc., priority 2022, dated 2025).

For the first experiment, the target named is TNFα (Homo sapiens, UniProt P01375). Description: TNFα Induced HEK Blue Cellular Assay. The class given is cell-based.
Chain of TNFα (P01375 77-233 limits assumed): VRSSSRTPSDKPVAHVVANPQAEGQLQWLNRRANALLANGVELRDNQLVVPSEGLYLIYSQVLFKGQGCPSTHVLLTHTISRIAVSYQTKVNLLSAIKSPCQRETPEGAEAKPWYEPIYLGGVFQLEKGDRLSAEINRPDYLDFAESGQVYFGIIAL
Conditions: not given
The method, boiled down: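 IC50 fitted with a 4-parameter logistic model from % inhibition, normalised to DMSO controls with and without stimulation. Readout: QUANTI-Blue SEAP at 620 nm after 24 h, 37 °C exposure to TNFα (100 pg/ml final) and test compound at […]–0.5 nM final.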
What is called IC50 is the concentration at which inhibition is half-maximal. Take `[2H]C([2H])([2H])N1C(=O)c2cccc(OC(F)F)c2[C@H]2C[C@@H]1c1nc3ccc(-c4ccc(CP(=O)(OC)OC)c(F)c4)cc3n12` [Example 136, dimethyl (4-((7R,14R)-1-(difluoromethoxy)-6-(methyl-d3)-5-oxo-5,6,7,14-tetrahydro-7,14-methanobenzo[f]benzo[4,5]imidazo[1,2-a][1,4]diazocin-11-yl)-2-fluorobenzyl)phosphonate]: the IC50 was below 100 nM.

Staying with this experiment, now noted: HEK Blue TNFα reporter cells, TNFα 100 pg/ml, 24 hrs at 37° C., secreted alkaline phosphatase (QUANTI-Blue) read at 620 nm; read-out: IC50 value.
With `[2H]C([2H])([2H])N1C(=O)c2cccc(OC(F)F)c2[C@H]2C[C@@H]1c1nc3ccc(-c4cc(F)c(P(C)(C)=O)c(C)n4)cc3n12` [Example 123, (7R,14R)-1-(difluoromethoxy)-11-(5-(dimethylphosphoryl)-4-fluoro-6-methylpyridin-2-yl)-6-(methyl-d3)-6,7-dihydro-7,14-methanobenzo[f]benzo[4,5]imidazo[1,2-a][1,4]diazocin-5(14H)-one], the IC50 fell in the range of 100 to 1000 nM. Same read-out and setting: in the case of `[2H]C([2H])([2H])N1C(=O)c2cccc(OC(F)F)c2[C@H]2C[C@@H]1c1nc3ccc(-c4cnc(P(C)(C)=O)c(F)c4)cc3n12` [Example 124, (7R,14R)-1-(difluoromethoxy)-11-(6-(dimethylphosphoryl)-5-fluoropyridin-3-yl)-6-(methyl-d3)-6,7-dihydro-7,14-methanobenzo[f]benzo[4,5]imidazo[1,2-a][1,4]diazocin-5(14H)-one] it was below 100 nM; in that of `[2H]C([2H])([2H])N1C(=O)c2cccc(OC(F)F)c2[C@H]2C[C@@H]1c1nc3ccc(-c4ccc(P(=O)(CC)CC)c(F)c4)cc3n12` [Example 125, (7R,14R)-11-(4-(diethylphosphoryl)-3-fluorophenyl)-1-(difluoromethoxy)-6-(methyl-d3)-6,7-dihydro-7,14-methanobenzo[f]benzo[4,5]imidazo[1,2-a][1,4]diazocin-5(14H)-one], below 100 nM; in that of `[2H]C([2H])([2H])N1C(=O)c2cccc(OC(F)F)c2[C@H]2C[C@@H]1c1nc3ccc(-c4ccc(P(=O)(CC)CC)nc4)cc3n12` [Example 126, (7R,14R)-11-(6-(diethylphosphoryl)pyridin-3-yl)-1-(difluoromethoxy)-6-(methyl-d3)-6,7-dihydro-7,14-methanobenzo[f]benzo[4,5]imidazo[1,2-a][1,4]diazocin-5(14H)-one], below 100 nM. Still for that read-out and setting: in the case of `[2H]C([2H])([2H])N1C(=O)c2cccc(OC(F)F)c2[C@H]2C[C@@H]1c1nc3ccc(-c4cnc(P(=O)(CC)CC)c(F)c4)cc3n12` [Example 127, (7R,14R)-11-(6-(diethylphosphoryl)-5-fluoropyridin-3-yl)-1-(difluoromethoxy)-6-(methyl-d3)-6,7-dihydro-7,14-methanobenzo[f]benzo[4,5]imidazo[1,2-a][1,4]diazocin-5(14H)-one] it was below 100 nM. On the same count and under the same terms, in the case of `[2H]C([2H])([2H])N1C(=O)c2cccc(OC(F)(F)F)c2[C@H]2C[C@@H]1c1nc3ccc(-c4ccc(P(C)(C)=O)c(F)c4)cc3n12` [Example 128, (7R,14R)-11-(4-(dimethylphosphoryl)-3-fluorophenyl)-6-(methyl-d3)-1-(trifluoromethoxy)-6,7-dihydro-7,14-methanobenzo[f]benzo[4,5]imidazo[1,2-a][1,4]diazocin-5(14H)-one] it was below 100 nM. As to `[2H]C([2H])([2H])N1C(=O)c2cccc(OC(F)F)c2[C@H]2C[C@@H]1c1nc3ccc(-c4cc(F)c(P(C)(C)=O)c(OC)c4)cc3n12` [Example 129, (7R,14R)-1-(difluoromethoxy)-11-(4-(dimethylphosphoryl)-3-fluoro-5-methoxyphenyl)-6-(methyl-d3)-6,7-dihydro-7,14-methanobenzo[f]benzo[4,5]imidazo[1,2-a][1,4]diazocin-5(14H)-one], the IC50 was below 100 nM.

As to `[2H]C([2H])([2H])N1C(=O)c2cccc(OC(F)F)c2[C@H]2C[C@@H]1c1nc3ccc(-c4cc(F)c(P(C)(C)=O)cc4OC)cc3n12` [Example 130, (7R,14R)-1-(difluoromethoxy)-11-(4-(dimethylphosphoryl)-5-fluoro-2-methoxyphenyl)-6-(methyl-d3)-6,7-dihydro-7,14-methanobenzo[f]benzo[4,5]imidazo[1,2-a][1,4]diazocin-5(14H)-one], the half-inhibitory concentration (IC50) was below 100 nM. `[2H]C([2H])([2H])N1C(=O)c2cccc(OC(F)F)c2[C@H]2C[C@@H]1c1nc3ccc(-c4cc(N)c(P(C)(C)=O)c(F)c4)cc3n12` [Example 131, (7R,14R)-11-(3-amino-4-(dimethylphosphoryl)-5-fluorophenyl)-1-(difluoromethoxy)-6-(methyl-d3)-6,7-dihydro-7,14-methanobenzo[f]benzo[4,5]imidazo[1,2-a][1,4]diazocin-5(14H)-one]: the IC50 is 10000 to 30000 nM. On to `[2H]C([2H])([2H])N1C(=O)c2cccc(OC(F)F)c2[C@H]2C[C@@H]1c1nc3ccc(-c4cc(C)c(P(C)(C)=O)c(F)n4)cc3n12` [Example 132, (7R,14R)-1-(difluoromethoxy)-11-(5-(dimethylphosphoryl)-6-fluoro-4-methylpyridin-2-yl)-6-(methyl-d3)-6,7-dihydro-7,14-methanobenzo[f]benzo[4,5]imidazo[1,2-a][1,4]diazocin-5(14H)-one], for which the IC50 is below 100 nM. Turning to `[2H]C([2H])([2H])N1C(=O)c2cccc(OC(F)F)c2[C@H]2C[C@@H]1c1nc3ccc(-c4cc(F)c(P(C)(C)=O)c(C#N)c4)cc3n12` [Example 133, 5-((7R,14R)-1-(difluoromethoxy)-6-(methyl-d3)-5-oxo-5,6,7,14-tetrahydro-7,14-methanobenzo[f]benzo[4,5]imidazo[1,2-a][1,4]diazocin-11-yl)-2-(dimethylphosphoryl)-3-fluorobenzonitrile], the IC50 was below 100 nM.

For `[2H]C([2H])([2H])N1C(=O)c2cccc(OC(F)F)c2[C@H]2C[C@@H]1c1nc3ccc(-c4cnc(P(C)(C)=O)c(C)c4)cc3n12` [Example 134, (7R,14R)-1-(difluoromethoxy)-11-(6-(dimethylphosphoryl)-5-methylpyridin-3-yl)-6-(methyl-d3)-6,7-dihydro-7,14-methanobenzo[f]benzo[4,5]imidazo[1,2-a][1,4]diazocin-5(14H)-one], the IC50 was below 100 nM. Take `[2H]C([2H])([2H])N1C(=O)c2cccc(OC(F)F)c2[C@H]2C[C@@H]1c1nc3c(F)cc(-c4ccc(P(C)(C)=O)c(F)c4)cc3n12` [Example 135, (7R,14R)-1-(difluoromethoxy)-11-(4-(dimethylphosphoryl)-3-fluorophenyl)-9-fluoro-6-(methyl-d3)-6,7-dihydro-7,14-methanobenzo[f]benzo[4,5]imidazo[1,2-a][1,4]diazocin-5(14H)-one]: the IC50 was below 100 nM. As for `CCP(=O)(CC)c1ccc(-c2ccc3nc4n(c3c2)[C@@H]2C[C@H]4NC(=O)c3cccc(OC(F)F)c32)cn1` [Example 137, (7R,14R)-11-(6-(diethylphosphoryl)pyridin-3-yl)-1-(difluoromethoxy)-6,7-dihydro-7,14-methanobenzo[f]benzo[4,5]imidazo[1,2-a][1,4]diazocin-5(14H)-one], the IC50 was below 100 nM.

`CCP(=O)(CC)c1ccc(-c2ccc3nc4n(c3c2)[C@@H]2C[C@H]4NC(=O)c3cccc(OC(F)F)c32)c(F)c1` [Example 138, (7R,14R)-11-(4-(diethylphosphoryl)-2-fluorophenyl)-1-(difluoromethoxy)-6,7-dihydro-7,14-methanobenzo[f]benzo[4,5]imidazo[1,2-a][1,4]diazocin-5(14H)-one]: the IC50 is below 100 nM.

On to `[2H]C([2H])([2H])N1C(=O)c2cccc(OC(F)F)c2[C@H]2C[C@@H]1c1nc3ccc(-c4ccc(P(C)(C)=O)c(F)c4)c(F)c3n12` [Example 139, (7R,14R)-1-(difluoromethoxy)-11-(4-(dimethylphosphoryl)-3-fluorophenyl)-12-fluoro-6-(methyl-d3)-6,7-dihydro-7,14-methanobenzo[f]benzo[4,5]imidazo[1,2-a][1,4]diazocin-5(14H)-one], for which the IC50 is below 100 nM. On the same count and under the same terms, in the case of `CP(C)(=O)c1ccc(-c2ccc3nc4n(c3c2F)[C@@H]2C[C@H]4NC(=O)c3cccc(OC(F)F)c32)cc1F` [Example 140, (7R,14R)-1-(difluoromethoxy)-11-(4-(dimethylphosphoryl)-3-fluorophenyl)-12-fluoro-6,7-dihydro-7,14-methanobenzo[f]benzo[4,5]imidazo[1,2-a][1,4]diazocin-5(14H)-one] it was below 100 nM. As to `[2H]C([2H])([2H])N1C(=O)c2cccc(OC(F)F)c2[C@H]2C[C@@H]1c1nc3ccc(-c4ccc(P(C)(C)=O)c(F)c4)nc3n12` [Example 141, (7R,14R)-1-(difluoromethoxy)-11-(4-(dimethylphosphoryl)-3-fluorophenyl)-6-(methyl-d3)-6,7-dihydro-7,14-methanobenzo[f]pyrido[3′,2′:4,5]imidazo[1,2-a][1,4]diazocin-5(14H)-one], the IC50 is below 100 nM.

For the compound `[2H]C([2H])([2H])N1C(=O)c2cccc(OC(F)F)c2[C@H]2C[C@@H]1c1nc3ccc(-c4cc(F)c(P(C)(C)=O)cc4F)nc3n12` [Example 142, (7R,14R)-1-(difluoromethoxy)-11-(4-(dimethylphosphoryl)-2,5-difluorophenyl)-6-(methyl-d3)-6,7-dihydro-7,14-methanobenzo[f]pyrido[3′,2′:4,5]imidazo[1,2-a][1,4]diazocin-5(14H)-one], the IC50 is below 100 nM.
